Results taken from the NIST ThermoML archive (doi:10.1007/s10765-010-0886-6).
Values joined by “and” are separate entries in the source; they are usually repeats but may differ in a detail not shown here. Identical values can stand only once. ± gives the expanded uncertainty stated by the source.

Conditions: gamma-densimeter

Fc1cc(F)c(F)c(F)c1F [pentafluorobenzene]
mass density
Conditions	Gas	Liquid
293.47 K	–	1525.2 ± 3 kg/m3
314 K	1.13 kg/m3	1483.8 ± 3 kg/m3
334 K	–	1441.8 ± 3 kg/m3
353.98 K	–	1399.8 ± 3 kg/m3
374.24 K	–	1353.6 ± 3 kg/m3
393.95 K	15.9 ± 1.5 kg/m3	1307.6 ± 3 kg/m3
413.94 K	24.8 ± 2 kg/m3 and 24.9 ± 2 kg/m3	1257.5 ± 3 kg/m3
413.95 K	24.7 ± 2 kg/m3	–
433.98 K	38.6 ± 2.5 kg/m3	1203 ± 3 kg/m3
454.02 K	58.3 ± 2.5 kg/m3	1142.5 ± 3 kg/m3
473.98 K	87.1 ± 2.5 kg/m3	1072.2 ± 3 kg/m3
493.99 K	131.1 ± 3 kg/m3	986.7 ± 3 kg/m3
504.08 K	163.1 ± 3 kg/m3	933.6 ± 3.1 kg/m3
514.2 K	208.7 ± 3.1 kg/m3	866.1 ± 3.1 kg/m3
524.52 K	287.7 ± 3.1 kg/m3	764.6 ± 3.2 kg/m3

Conditions	Critical temperature [K]
Liquid	531.04 ± 0.2
